# How the values were obtained:
# Assay type in all cases: in vivo
# [1] = tested on: wheat (Triticum aestivum); assay: Test A greenhouse herbicide test, pre- and postemergence; conditions: Postemergence
# Method in brief: (§1)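 Seeds in loam–sand blend received a preemergence directed soil spray; plants at 2–10 cm, one- to two-leaf stage, received postemergence sprays. Compounds in a non-phytotoxic solvent with surfactant. After about 10 d in a greenhouse, injury rated visually versus untreated controls on a 0–100 scale (100 = complete control).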
# corn (Zea mays) [2] = assay: as above; conditions: Postemergence
# Method in brief: as §1
# [3] = tested on: foxtail, giant (giant foxtail, Setaria faberii); assay: as above
# Method in brief: as §1
# [4] = tested on: ryegrass, Italian (Italian ryegrass, Lolium multiflorum); assay: as above
# Method in brief: as §1
# soybean (Glycine max) = assay: Test C greenhouse herbicide test, pre- and postemergence
# Method in brief: (§2)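 Visual ratings on a 0 to 100 scale (0 = no effect, 100 = complete control) versus untreated controls, scored 13–15 d after treatment. Soil-applied preemergence to seeded loam/sand; foliar postemergence to 1- to 4-leaf plants (2–18 cm) in peat-vermiculite mix; compounds formulated in solvent plus surfactant.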
# corn (Zea mays) [5] = assay: as above
# Method in brief: as §2
# [6] = tested on: blackgrass (Alopecurus myosuroides); assay: as above
# Method in brief: as §2
# [7] = tested on: waterhemp (common waterhemp, Amaranthus rudis); assay: as above
# Method in brief: as §2
# [8] = tested on: velvetleaf (Abutilon theophrasti); assay: as above
# Method in brief: as §2
# [9] = tested on: nutsedge, yellow (yellow nutsedge, Cyperus esculentus); assay: as above
# Method in brief: as §2
# [10] = tested on: pigweed (Amaranthus retroflexus); assay: as above
# Method in brief: as §2
# [11] = 125 g ai/ha, visual rating after approx. 10 d, 0 to 100 scale (0 no effect, 100 complete control)
# [12] = 500 g ai/ha, 0 to 100 scale, 0 is no effect, 100 is complete control
# [13] = Postemergence, 125 g ai/ha, visual rating after approx. 10 d, 0 to 100 scale (0 no effect, 100 complete control)
# [14] = Postemergence, 500 g ai/ha, 0 to 100 scale, 0 is no effect, 100 is complete control
# [15] = Preemergence, 125 g ai/ha, 0 to 100 scale where 0 is no effect and 100 is complete control
# [16] = Preemergence, 500 g ai/ha, 0 to 100 scale, 0 no effect, 100 complete control
# [17] = Postemergence, 31 g ai/ha, 0 to 100 scale (0 no effect, 100 complete control)
# [18] = Postemergence, 125 g ai/ha, scale 0 to 100, 0 is no effect, 100 is complete control
# [19] = Postemergence, 250 g ai/ha, scale 0 to 100, 0 no effect, 100 complete control, 13 to 15 d
# [20] = Preemergence, 62 g ai/ha, scale 0 to 100, 0 is no effect, 100 is complete control
# [21] = Preemergence, 125 g ai/ha, scale 0 to 100, 0 is no effect, 100 is complete control
# [22] = Preemergence, 250 g ai/ha, scale 0 to 100, 0 no effect, 100 complete control
# [23] = postemergence, 62 g ai/ha, scale 0 to 100, 0 no effect, 100 complete control
# [24] = Preemergence, 31 g ai/ha, scale 0 to 100, 0 is no effect, 100 is complete control
# [25] = 125 g ai/ha, 0 to 100 scale where 0 is no effect and 100 is complete control
# [26] = 500 g ai/ha, visual rating after approx. 10 d, 0 to 100 scale (0 no effect, 100 complete control)
# [27] = Postemergence, 125 g ai/ha, 0 to 100 scale where 0 is no effect and 100 is complete control
# [28] = Postemergence, 500 g ai/ha, visual rating after approx. 10 d, 0 to 100 scale (0 no effect, 100 complete control)
# [29] = Preemergence, 500 g ai/ha, 0 to 100 scale where 0 is no effect and 100 is complete control
smiles,measurement,setting,value
Cc1nn(C)c(=O)c(-c2c(C)sc3ccc(Br)cc23)c1O [Compound 22],"Plant response rating, Wheat",[1]; [11],0
same,Wheat plant response rating,[1]; [12],0
same,"Plant response rating, Corn",corn (Zea mays) [2]; [11],0
same,Corn plant response rating,corn (Zea mays) [2]; [12],0
same,"Plant response rating, Foxtail, Giant",[3]; [13],60
same,"Foxtail, Giant plant response rating",[3]; [14],90
same,"Foxtail, Giant plant response rating",[3]; [15],70
same,"Plant response rating, Foxtail, Giant",[3]; [16],90
same,"Plant response rating, Ryegrass, Italian",[4]; [13],80
same,"Ryegrass, Italian plant response rating",[4]; [14],100
same,"Ryegrass, Italian plant response rating",[4]; [15],100
same,"Plant response rating, Ryegrass, Italian",[4]; [16],100
same,Soybean plant response rating,soybean (Glycine max); [17],0
same,"Plant response rating, Soybean",soybean (Glycine max); [18],0
same,"Plant response rating, Soybean",soybean (Glycine max); [19],0
same,"Plant response rating, Soybean",soybean (Glycine max); [20],0
same,"Plant response rating, Soybean",soybean (Glycine max); [21],0
same,Soybean plant response rating,soybean (Glycine max); [22],5
same,Soybean plant response rating,soybean (Glycine max); [23],0
same,Corn plant response rating,corn (Zea mays) [5]; [17],0
same,"Plant response rating, Corn",corn (Zea mays) [5]; [18],5
same,"Plant response rating, Corn",corn (Zea mays) [5]; [19],5
same,"Plant response rating, Corn",corn (Zea mays) [5]; [24],0
same,"Plant response rating, Corn",corn (Zea mays) [5]; [20],0
same,"Plant response rating, Corn",corn (Zea mays) [5]; [21],0
same,Corn plant response rating,corn (Zea mays) [5]; [22],35
same,Corn plant response rating,corn (Zea mays) [5]; [23],5
same,Blackgrass plant response rating,[6]; [17],0
same,"Plant response rating, Blackgrass",[6]; [18],20
same,"Plant response rating, Blackgrass",[6]; [19],20
same,"Plant response rating, Blackgrass",[6]; [24],5
same,"Plant response rating, Blackgrass",[6]; [20],20
same,"Plant response rating, Blackgrass",[6]; [21],40
same,Blackgrass plant response rating,[6]; [22],45
same,Blackgrass plant response rating,[6]; [23],0
same,Waterhemp plant response rating,[7]; [17],75
same,"Plant response rating, Waterhemp",[7]; [18],75
same,"Plant response rating, Waterhemp",[7]; [19],90
same,"Plant response rating, Waterhemp",[7]; [20],80
same,"Plant response rating, Waterhemp",[7]; [21],100
same,Waterhemp plant response rating,[7]; [22],100
same,Waterhemp plant response rating,[7]; [23],70
same,Velvetleaf plant response rating,[8]; [17],20
same,"Plant response rating, Velvetleaf",[8]; [18],80
same,"Plant response rating, Velvetleaf",[8]; [19],80
same,"Plant response rating, Velvetleaf",[8]; [20],60
same,"Plant response rating, Velvetleaf",[8]; [21],75
same,Velvetleaf plant response rating,[8]; [22],98
same,Velvetleaf plant response rating,[8]; [23],50
same,"Nutsedge, Yellow plant response rating",[9]; [17],35
same,"Plant response rating, Nutsedge, Yellow",[9]; [18],65
same,"Plant response rating, Nutsedge, Yellow",[9]; [19],65
same,"Plant response rating, Nutsedge, Yellow",[9]; [24],55
same,"Plant response rating, Nutsedge, Yellow",[9]; [20],45
same,"Plant response rating, Nutsedge, Yellow",[9]; [21],70
same,"Nutsedge, Yellow plant response rating",[9]; [22],70
same,"Nutsedge, Yellow plant response rating",[9]; [23],50
same,Pigweed plant response rating,[10]; [17],85
same,"Plant response rating, Pigweed",[10]; [18],90
same,"Plant response rating, Pigweed",[10]; [19],98
same,"Plant response rating, Pigweed",[10]; [24],60
same,"Plant response rating, Pigweed",[10]; [20],100
same,"Plant response rating, Pigweed",[10]; [21],100
same,Pigweed plant response rating,[10]; [22],100
same,Pigweed plant response rating,[10]; [23],75
CC(=O)Oc1c(C)nn(C)c(=O)c1-c1c(C)cc(C)c2ccccc12 [Compound 99],"Plant response rating, Wheat",[1]; [25],20
same,"Plant response rating, Wheat",[1]; [26],30
same,"Plant response rating, Corn",corn (Zea mays) [2]; [25],20
same,"Plant response rating, Corn",corn (Zea mays) [2]; [26],40
same,"Plant response rating, Foxtail, Giant",[3]; [27],40
same,"Plant response rating, Foxtail, Giant",[3]; [28],90
same,"Foxtail, Giant plant response rating",[3]; [15],50
same,"Plant response rating, Foxtail, Giant",[3]; [29],80
same,"Plant response rating, Ryegrass, Italian",[4]; [27],100
same,"Plant response rating, Ryegrass, Italian",[4]; [28],100
same,"Ryegrass, Italian plant response rating",[4]; [15],100
same,"Plant response rating, Ryegrass, Italian",[4]; [29],100
same,"Plant response rating, Soybean",soybean (Glycine max); [18],5
same,"Plant response rating, Soybean",soybean (Glycine max); [19],5
same,"Plant response rating, Soybean",soybean (Glycine max); [24],0
same,"Plant response rating, Soybean",soybean (Glycine max); [20],0
same,"Plant response rating, Soybean",soybean (Glycine max); [21],5
same,Soybean plant response rating,soybean (Glycine max); [22],20
same,Soybean plant response rating,soybean (Glycine max); [23],5
same,Corn plant response rating,corn (Zea mays) [5]; [17],0
same,"Plant response rating, Corn",corn (Zea mays) [5]; [18],10
same,"Plant response rating, Corn",corn (Zea mays) [5]; [19],10
same,"Plant response rating, Corn",corn (Zea mays) [5]; [24],5
same,"Plant response rating, Corn",corn (Zea mays) [5]; [20],20
same,"Plant response rating, Corn",corn (Zea mays) [5]; [21],10
same,Corn plant response rating,corn (Zea mays) [5]; [22],30
same,Corn plant response rating,corn (Zea mays) [5]; [23],5
same,Blackgrass plant response rating,[6]; [17],20
same,"Plant response rating, Blackgrass",[6]; [18],50
same,"Plant response rating, Blackgrass",[6]; [19],65
same,"Plant response rating, Blackgrass",[6]; [24],50
same,"Plant response rating, Blackgrass",[6]; [20],70
same,"Plant response rating, Blackgrass",[6]; [21],90
same,Blackgrass plant response rating,[6]; [22],90
same,Blackgrass plant response rating,[6]; [23],30
same,"Plant response rating, Waterhemp",[7]; [18],95
same,"Plant response rating, Waterhemp",[7]; [19],98
same,"Plant response rating, Waterhemp",[7]; [24],85
same,"Plant response rating, Waterhemp",[7]; [20],100
same,"Plant response rating, Waterhemp",[7]; [21],98
same,Waterhemp plant response rating,[7]; [22],100
same,Waterhemp plant response rating,[7]; [23],75
same,"Plant response rating, Velvetleaf",[8]; [18],98
same,"Plant response rating, Velvetleaf",[8]; [19],100
same,"Plant response rating, Velvetleaf",[8]; [24],60
same,"Plant response rating, Velvetleaf",[8]; [20],75
same,"Plant response rating, Velvetleaf",[8]; [21],90
same,Velvetleaf plant response rating,[8]; [22],95
same,Velvetleaf plant response rating,[8]; [23],85
same,"Plant response rating, Nutsedge, Yellow",[9]; [18],75
same,"Plant response rating, Nutsedge, Yellow",[9]; [19],85
same,"Plant response rating, Nutsedge, Yellow",[9]; [24],20
same,"Plant response rating, Nutsedge, Yellow",[9]; [20],70
same,"Plant response rating, Nutsedge, Yellow",[9]; [21],60
same,"Nutsedge, Yellow plant response rating",[9]; [22],90
same,"Nutsedge, Yellow plant response rating",[9]; [23],55
same,"Plant response rating, Pigweed",[10]; [18],98
same,"Plant response rating, Pigweed",[10]; [19],95
same,"Plant response rating, Pigweed",[10]; [24],95
same,"Plant response rating, Pigweed",[10]; [20],100
same,"Plant response rating, Pigweed",[10]; [21],100
same,Pigweed plant response rating,[10]; [22],100
same,Pigweed plant response rating,[10]; [23],75

# — patent US10597388B2, “Pyridazinone herbicides” (FMC CORPORATION, priority 2014, dated 2020)
